# In US9512073B2, “Amino acid-, peptide-and polypeptide-lipids, isomers, compositions, and uses thereof” (Massachusetts Institute of Technology, priority 2011, dated 2016):
# “Also recorded” adds a separate entry of the source.
# Assays:
# firefly luciferase = test: In vitro siRNA transfection assay (luciferase silencing) in HeLa cells with apolipoproteins; format: cell-based; details: for order of silencing effects: with addition of ApoE3 (ApoE), siRNA 50 ng/well
# Protocol: HeLa cells, stably expressing firefly luciferase and Renilla luciferase, were seeded (14,000 cells/well) into each well of an opaque white 96-well plate (Corning-Costar) and allowed to attach overnight in growth medium. Growth medium was composed of 90% phenol red-free DMEM, 10% FBS, 100 units/ml penicillin, […] streptomycin (Invitrogen). Cells were transfected with LNPs formulated with anti-luciferase siRNA by addition of formulated particles to growth medium. Transfections were performed in quadruplicate. Cells were allowed to grow for 1 d at 37° C., 5% CO2 and were then analyzed for luciferase expression. Control experiments were performed with Lipofectamine 2000, as described by the vendor (Invitrogen). Firefly and Renilla luciferase expression was analyzed using Dual-Glo assay kits (Promega). Luminescence was measured using a Victor3 luminometer (Perkin Elmer). Effects of apolipoproteins were evaluated through an in vitro siRNA transfection assay in HeLa cells as previously reported. HeLa cells, stably expressing firefly luciferase and Renilla luciferase were seeded in an opaque white 96-well plate (Corning-Costar) overnight. Cells were transfected by cKK-E12 formulated with 50 ng of firefly-specific siLuc in quadruplicate. Apolipoproteins (Fitzgerald Industries) were incubated with cKK-E12 formulations for 5 mins before adding to cells. After 24 h incubation at 37° C., 5% CO2, cells were analyzed for luciferase expression using Dual-Glo assay kits (Promega). For visualization of cell uptake, cKK-E12 was formulated with an Alexa-Fluor siRNA and incubated with Hela cells for 3 h. Cells were then fixed in 4% paraformaldehyde, permeabilized with 0.1% saponin and stained with Hoescht. All images were acquired using an Opera spinning disc confocal system (Perkin Elmer), and the data was analyzed using Acapella Software (Perkin Elmer).
# Factor VII = test: In vivo Factor VII gene silencing in mice; set-up: species or system C57BL/6 mice
# Protocol: APPL, distearoyl phosphatidylcholine (DSPC), cholesterol and mPEG2000-DMG were solubilized in 90% ethanol at a molar ratio of 50:10:38.5:1.5. The siRNA (against firefly luciferase or fVII) was solubilized in 10 mM citrate, pH 3 buffer at a concentration of 0.4 mg/mL. The ethanolic lipid solution and the aqueous siRNA solution were pumped by means of a syringe pump through a microfluidic mixing chamber to spontaneously form siRNA-containing lipid nanoparticles. Lipids were combined with siRNA at a total lipid to siRNA ratio of 7:1 (wt:wt). These formulations were dialyzed against PBS to remove ethanol and exchange buffer. […]
# C57BL/6 mice (Charles River Labs) were used for siRNA silencing experiments. […] After 48 or 72 h, body-weight gain/loss was measured and mice were anaesthetized by isofluorane inhalation for blood sample collection by retroorbital eye bleed. Serum was isolated with serum separation tubes (Falcon tubes, Becton Dickinson) and Factor VII protein levels were analyzed by chromogenic assay (Biophen FVII, Aniara Corporation). A standard curve was constructed using samples from PBS-injected mice and relative Factor VII expression was determined by comparing treated groups to untreated PBS control. […]
SMILES,order of silencing effects (firefly luciferase),"luciferase silencing, relative potency (firefly luciferase; without addition of ApoE3, siRNA 50 ng/well)","Factor VII silencing, relative potency (Factor VII; lower dose of 0.1 mg/kg, 0.1 mg/kg)","Factor VII silencing, relative potency (Factor VII; siRNA formulation, systemic administration, dose of 1 mg/kg)"
CCCCCCCCCCCCN(CCCCCCCCCCCC)CCCCC1NC(=O)C(CCCCN(CCCCCCCCCCCC)CCCCCCCCCCCC)NC1=O (centres unmarked) [cKK-A12],cKK-E12>cKK-A12>cKK-O12,more potent than cKK-E12 and cKK-O12,–,–
CCCCCCCCCCC(O)CN(CCCCC1NC(=O)C(CCCCN(CC(O)CCCCCCCCCC)CC(O)CCCCCCCCCC)NC1=O)CC(O)CCCCCCCCCC (centres unmarked) [cKK-E12],cKK-E12>cKK-A12>cKK-O12,–,lead compound; also recorded: most potent material,more potent than aldehyde and acrylate derivatives
